Here are results for 3 compounds from US8283481B2, “Inhibitors of a 9-cis epoxycarotenoid dioxygenase” (National Research Council of Canada, priority 2008, dated 2012).

Broadly, the inhibition is the percentage by which the read-out fell short of the control. For orientation: Ki means a measure of affinity in units of concentration, obtained from inhibition or displacement.

One assay deals with T1, recombinant AtNCED3 (Arabidopsis thaliana, UniProt Q9LRR7).
T1 construct: glutathione-S-transferase (GST) (C); made in house; host or cells: E. coli BL21(DE3), pRL296 vector
The assay can be described thus: Recombinant AtNCED3 in vitro enzyme assay (HPLC, cleavage of 9-cis-neoxanthin). In kind it is biochemical. Conditions: for Ki: Dixon plot, competitive inhibition, 0-250 μM inhibitor, 9-cis-neoxanthin at 50 (55), 30 and 10 μM; for relative inhibition of AtNCED3 activity (in words): in vitro enzyme assay, 1 mM concentration (FIG. 5). The source says: Fresh spinach was macerated under liquid nitrogen and extracted five times with three volumes of methanol/0.1% KOH. Samples were dried using a roto-evaporator, resuspended in acetone and then chilled on ice for one hour. The solvent was subsequently transferred to a new flask, roto-evaporated and resuspended in acetonitrile/acetone (1:1) mixture. The mixture was applied to a gravity flow column containing C-18 silica gel (Sigma) equilibrated in 65% acetonitrile/35% water (solvent C). The column was washed with 49% acetone (solvent D)/51% solvent A and 20 mL of 55% solvent D/45% solvent A while collecting 5 mL fractions. Fractions containing neoxanthin were pooled, dried, and resuspended in 100 μL of methanol. The pooled mixture was separated using an Agilent 1100 series HPLC and a Supelcosil™ LC-18 (25 cm×10 mm, 5 m) (Supelco) column equilibrated with solvent A. The HPLC method consisted of a linear gradient over 30 minutes from 100% solvent A to 100% solvent D with a flow rate of 4 mL/minute at 22° C. and monitored with a PDA detector at 436 nm. The neoxanthin fractions were collected, dried and resuspended in ethanol. Neoxanthin was quantified by determining its OD439 using a PerkinElmer Lambda 35 UV/VIS Spectrometer and applying its extinction coefficient of 2243 (A^1%1cm).^30
AtNCED3 was over-expressed using the pRL296 expression vector (a gift from M. Cygler, BRI, Montreal) in E. coli (BL21)DE3 cells as a glutathione-S-transferase fusion protein and affinity purified using glutathione sepharose 4 fast flow resin (GE Healthcare) as described previously.^35 Essentially, cells were grown to an OD600 of 0.45 at 37° C. and 200 rpm shaking. The culture was induced with 1 mM isopropyl-β-d-thiogalactoside for 16 h at 15° C. and 200 rpm shaking. The cells were pelleted and resuspended in 50 mM Tris-HCl (pH 8.0) 1 mM DTT and 0.5% protease inhibitor cocktail set III (CalBiochem). Cells were lysed using a french press at 20,000 psi and affinity purified as per manufacturer's instructions (GE Healthcare). Protein concentration was determined by the method of Bradford.^36
Enzymatic assays contained 100 mM Bis-Tris (pH 6.7), […], 10 mM ascorbate, 0.05% Triton™ X-100, catalase (1 mg/mL), neoxanthin and inhibitor to a total volume of 5 L of ethanol and 8 g AtNCED3 to a total assay volume of 100 L. Assays were incubated at 22° C. for 20 min. The assays were stopped with the addition of 50 L of 25% Triton™ X-100 and extracted with 150 L of ethyl acetate. All procedures were performed under red-light to minimize photo-induced damage to assay components and products.^6 Fine chemicals and solvents were purchased from Sigma-Aldrich. 75 μL of the assay extract was injected into an Agilent 1100 series HPLC machine equipped with a Supelcosil™ LC-18 (3.3 cm×4.6 mm, 3 m) (Supelco) column pre-equilibrated with 15% acetonitrile (solvent B)/85% water (solvent A). Solvent B increased to 35% over ten minutes, followed by a linear gradient of 65% solvent B to 100% solvent D over 10 minutes. Solvent D was maintained at 100% for 2 minutes and then the column was returned to 15% solvent B for 5 min. The flow rate was maintained at 1.5 mL/min. and monitored with a photodiode array (PDA) detector at 436 and 262 nm.
Evaluation of recombinant AtNCED3 kinetic parameters for Km was accomplished using Michaelis-Menten equation plotted with EnzFitter™ v2.0.18.0 (Biosoft). The Ki for inhibitors was determined using a Dixon plot and concentration ranges of 250, 200, 150, 100, 50 and 0 μM inhibitor in the presence of either 55, 30 or 10 μM 9-cis-neoxanthin 2.^5

Assay [1] deals with Arabidopsis thaliana Col-0 seeds. The assay can be described thus: Seed germination assay. It is filed as in vivo. How it is done:
Arabidopsis thaliana Col-0 seeds were sterilized by washing them with 10% sodium hypochlorite and 20% sodium dodecyl sulfate (Sigma) for five minutes and then rinsing four times with sterile water. Seeds were moist chilled for 4 days and then plated on germination medium (0.41% MS salts, 1% sucrose, 0.05% MES and 0.1% Gamborg's vitamins, pH 5.7, 0.7% agar) (Sigma) containing either 0.1, 0.33, 1.0 or 3.33 μM of inhibitor or (+)-ABA 1. As a control, seeds were sewn and germinated on media only without inhibitors or (+)-ABA 1. Germination was recorded over seven days and indexes calculated as described previously.^40

Setting [2] is: highest concentration tested (3.33 μM).

T1 sequence (Q9LRR7 41-599): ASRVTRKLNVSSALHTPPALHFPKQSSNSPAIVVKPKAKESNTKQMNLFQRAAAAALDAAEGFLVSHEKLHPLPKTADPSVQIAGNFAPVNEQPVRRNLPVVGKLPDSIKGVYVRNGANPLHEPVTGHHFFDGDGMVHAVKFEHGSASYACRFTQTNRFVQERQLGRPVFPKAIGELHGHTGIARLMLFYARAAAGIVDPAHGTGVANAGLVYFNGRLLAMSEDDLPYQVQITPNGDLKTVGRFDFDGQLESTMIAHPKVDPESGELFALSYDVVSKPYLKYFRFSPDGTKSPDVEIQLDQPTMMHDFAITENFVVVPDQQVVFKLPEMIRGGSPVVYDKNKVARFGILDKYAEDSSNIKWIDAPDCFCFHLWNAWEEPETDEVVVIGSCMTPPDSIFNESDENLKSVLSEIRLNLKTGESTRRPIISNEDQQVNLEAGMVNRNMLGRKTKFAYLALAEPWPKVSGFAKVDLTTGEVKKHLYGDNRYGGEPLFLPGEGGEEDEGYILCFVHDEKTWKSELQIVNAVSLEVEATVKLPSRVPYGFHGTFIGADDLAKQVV

As to `CCSCC=C(C)C#CC1(O)C(C)CC(=O)CC1(C)C` (racemic) [Compound 13, (4S,5R/4R,5S)-(3′Z)-4-(5′-(Ethylthio)-3′-methylpent-3′-en-1′-ynyl)-4-hydroxy-3,3,5-trimethylcyclohexanone], the inhibition at 1000 µM at recombinant AtNCED3 (1 mM compound) came out at 75%. For the same compound, the inhibition constant Ki on recombinant AtNCED3 stood at 93 µM. The “reduction of seed germination” value in assay [1] (1 μM in germination medium) was determined as 26%; in assay [1] (setting [2]), 38%. Moreover, the “less effect on germination than (+)-ABA 1” value in assay [1] (compared with (+)-ABA 1) is 60-70%. Besides, in assay [1], the “effect on seed germination at low concentrations (in words)” value is “slight promotion effects”.
With `C/C(C#C[C@@]12O[C@]1(C)C[C@@H](O)CC2(C)C)=C/CSc1ccccc1` [Compound 17, (1R,3S,6R)-(3′Z)-1,5,5-Trimethyl-6-(3′-methyl-5′-(phenylthio)-pent-3′-en-1′-ynyl)-7-oxa-bicyclo[4.1.0]heptan-3-ol], at recombinant AtNCED3, the inhibitory constant (Ki) is 57 µM and the “relative inhibition of AtNCED3 activity (in words)” value is “completely inhibited”. The “reduction of seed germination” value in assay [1] (1 μM in germination medium) amounted to 26%. Also, the “reduction of seed germination” value in assay [1] (setting [2]) turned out to be 51%. For the same compound, the “effect on seed germination at low concentrations (in words)” value in assay [1] was “slight promotion effects”.
Consider `C/C(C#C[C@@]12O[C@]1(C)C[C@@H](O)CC2(C)C)=C/CNc1ccccc1` [Compound 18, (1R,3S,6R)-(3′Z)-1,5,5-Trimethyl-6-(3′-methyl-5′-(phenylamino)-pent-3′-en-1-ynyl)-7-oxabicyclo[4.1.0]heptan-3-ol], for which, on recombinant AtNCED3, the inhibition constant (Ki) was determined as 87 µM and the “relative inhibition of AtNCED3 activity (in words)” value is “completely inhibited”. Also, in assay [1] (1 μM in germination medium), the “reduction of seed germination” value is on record as 50%. For the same compound, the “reduction of seed germination” value in assay [1] (setting [2]) is 71%.
